According to US9637483B2, “Heterocyclic compound” (TAKEDA PHARMACEUTICAL COMPANY LIMITED, priority 2013, dated 2017):

Key:
Format in all cases: biochemical
JAK2 = target: T1, JAK2 (Homo sapiens, UniProt O60674); experiment: JAK2 enzyme inhibition test (LANCE method); details: 1 μM test compound; read-out: JAK2 enzyme inhibitory activity (%, 1 μM)
T1 construct: purchased Invitrogen
Outline: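 TR-FRET (LANCE) read-out, ex 340/em 665 nm with 100 μs delay, after 1 hr room-temperature detection with europium anti-phosphotyrosine antibody and 20 mM EDTA. The preceding 1 hr kinase reaction combined JAK2, ULight-JAK1 substrate and ATP, added as 6 ng/mL, 300 nM and 45 μM solutions; enzyme-free wells defined 100% inhibition.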

TYK2 = target: T2, TYK2 (Homo sapiens, UniProt P29597); experiment: TYK2 enzyme inhibition test (LANCE method); details: 1 μM test compound; read-out: TYK2 enzyme inhibitory activity (%, 1 μM)
T2 construct: purchased Invitrogen
T2 sequence (P29597 whole entry): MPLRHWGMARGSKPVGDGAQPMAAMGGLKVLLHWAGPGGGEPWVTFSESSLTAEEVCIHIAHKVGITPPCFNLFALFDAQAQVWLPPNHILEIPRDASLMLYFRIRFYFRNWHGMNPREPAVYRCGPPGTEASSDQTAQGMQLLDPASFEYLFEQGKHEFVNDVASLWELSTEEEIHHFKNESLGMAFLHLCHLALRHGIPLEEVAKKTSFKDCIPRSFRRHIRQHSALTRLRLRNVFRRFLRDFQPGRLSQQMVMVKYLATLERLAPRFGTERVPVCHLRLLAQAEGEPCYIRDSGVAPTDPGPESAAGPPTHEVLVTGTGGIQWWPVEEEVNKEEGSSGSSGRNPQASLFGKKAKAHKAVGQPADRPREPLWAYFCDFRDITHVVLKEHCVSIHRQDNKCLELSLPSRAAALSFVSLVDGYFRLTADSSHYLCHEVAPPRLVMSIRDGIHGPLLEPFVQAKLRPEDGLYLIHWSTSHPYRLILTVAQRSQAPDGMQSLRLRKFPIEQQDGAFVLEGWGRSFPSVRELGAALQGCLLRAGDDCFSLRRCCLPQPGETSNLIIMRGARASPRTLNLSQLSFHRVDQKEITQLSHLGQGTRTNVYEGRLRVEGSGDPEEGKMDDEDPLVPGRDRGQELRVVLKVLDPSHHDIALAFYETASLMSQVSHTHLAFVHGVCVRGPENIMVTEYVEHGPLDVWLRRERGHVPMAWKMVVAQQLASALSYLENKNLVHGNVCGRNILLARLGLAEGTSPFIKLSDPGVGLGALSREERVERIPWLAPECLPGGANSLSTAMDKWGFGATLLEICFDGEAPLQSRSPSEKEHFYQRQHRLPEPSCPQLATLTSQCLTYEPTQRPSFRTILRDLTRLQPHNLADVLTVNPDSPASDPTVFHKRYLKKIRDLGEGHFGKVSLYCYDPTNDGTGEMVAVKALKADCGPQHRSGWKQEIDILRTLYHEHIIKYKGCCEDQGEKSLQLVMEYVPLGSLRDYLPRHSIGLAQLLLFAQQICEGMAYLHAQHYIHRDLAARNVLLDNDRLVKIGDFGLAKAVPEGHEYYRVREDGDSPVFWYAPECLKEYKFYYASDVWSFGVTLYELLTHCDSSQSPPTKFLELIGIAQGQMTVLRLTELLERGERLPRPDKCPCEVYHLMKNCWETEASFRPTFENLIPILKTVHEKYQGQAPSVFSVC
Outline: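 TR-FRET (LANCE) readout: after 1 h room-temperature kinase reaction, EDTA plus 4 nM Eu-labelled anti-phosphotyrosine antibody added, signal at 665 nm (340 nm excitation). Reaction combined TYK2, ULight-JAK1 substrate and ATP, prepared at 375 ng/mL, 300 nM and 30 μM before addition, in pH 7.5 HEPES/MgCl2 buffer; enzyme-free wells define full inhibition.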

JAK3 = target: T3, JAK3 (Homo sapiens, UniProt P52333); experiment: JAK3 enzyme inhibition test (LANCE method); details: 1 μM test compound; read-out: JAK3 enzyme inhibitory activity (%, 1 μM)
T3 construct: purchased Invitrogen
T3 sequence (P52333 1-1124): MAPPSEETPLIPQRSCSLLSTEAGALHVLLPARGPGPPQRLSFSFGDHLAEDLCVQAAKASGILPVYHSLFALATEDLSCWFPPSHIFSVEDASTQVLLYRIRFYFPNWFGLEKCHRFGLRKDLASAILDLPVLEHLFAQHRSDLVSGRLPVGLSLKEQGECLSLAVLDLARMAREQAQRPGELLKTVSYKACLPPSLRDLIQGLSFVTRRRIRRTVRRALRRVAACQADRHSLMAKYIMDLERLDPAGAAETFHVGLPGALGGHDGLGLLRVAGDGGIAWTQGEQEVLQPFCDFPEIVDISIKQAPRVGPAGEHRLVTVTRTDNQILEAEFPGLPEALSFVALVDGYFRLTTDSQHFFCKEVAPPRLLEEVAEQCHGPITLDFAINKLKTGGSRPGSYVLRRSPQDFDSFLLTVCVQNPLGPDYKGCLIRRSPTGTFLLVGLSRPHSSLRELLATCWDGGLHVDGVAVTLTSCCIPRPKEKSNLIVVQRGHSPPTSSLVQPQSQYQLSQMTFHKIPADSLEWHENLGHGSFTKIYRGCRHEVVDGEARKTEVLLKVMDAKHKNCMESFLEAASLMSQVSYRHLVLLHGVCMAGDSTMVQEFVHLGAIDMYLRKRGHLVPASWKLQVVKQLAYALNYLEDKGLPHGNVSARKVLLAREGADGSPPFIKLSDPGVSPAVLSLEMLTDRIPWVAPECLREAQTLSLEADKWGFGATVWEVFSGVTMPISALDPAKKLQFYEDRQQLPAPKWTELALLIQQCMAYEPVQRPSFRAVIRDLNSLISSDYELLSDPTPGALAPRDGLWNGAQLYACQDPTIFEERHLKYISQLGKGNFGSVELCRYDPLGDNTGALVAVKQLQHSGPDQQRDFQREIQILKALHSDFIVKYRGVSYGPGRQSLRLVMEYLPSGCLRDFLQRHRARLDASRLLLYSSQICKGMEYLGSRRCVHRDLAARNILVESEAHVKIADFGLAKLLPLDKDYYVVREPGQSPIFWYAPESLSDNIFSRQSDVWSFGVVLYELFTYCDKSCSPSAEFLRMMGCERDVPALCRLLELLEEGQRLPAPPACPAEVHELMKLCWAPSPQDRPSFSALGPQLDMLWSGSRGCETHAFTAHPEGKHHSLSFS
Outline: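 TR-FRET (LANCE) read: 1 h room-temperature reaction, EDTA quench, Eu-anti-phosphotyrosine antibody, emission 665 nm after 340 nm excitation. Added solutions held 12 ng/mL JAK3, 300 nM ULight-JAK1 substrate and 15 μM ATP (pH 7.5 HEPES). Activity expressed against no-enzyme wells defined as full inhibition.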

JAK1 = target: T4, JAK1 (Homo sapiens, UniProt P23458); experiment: JAK1 enzyme inhibition test (LANCE method); details: 1 μM test compound; read-out: JAK1 enzyme inhibitory activity (%, 1 μM)
T4 construct: purchased Invitrogen
T4 sequence (P23458 whole entry): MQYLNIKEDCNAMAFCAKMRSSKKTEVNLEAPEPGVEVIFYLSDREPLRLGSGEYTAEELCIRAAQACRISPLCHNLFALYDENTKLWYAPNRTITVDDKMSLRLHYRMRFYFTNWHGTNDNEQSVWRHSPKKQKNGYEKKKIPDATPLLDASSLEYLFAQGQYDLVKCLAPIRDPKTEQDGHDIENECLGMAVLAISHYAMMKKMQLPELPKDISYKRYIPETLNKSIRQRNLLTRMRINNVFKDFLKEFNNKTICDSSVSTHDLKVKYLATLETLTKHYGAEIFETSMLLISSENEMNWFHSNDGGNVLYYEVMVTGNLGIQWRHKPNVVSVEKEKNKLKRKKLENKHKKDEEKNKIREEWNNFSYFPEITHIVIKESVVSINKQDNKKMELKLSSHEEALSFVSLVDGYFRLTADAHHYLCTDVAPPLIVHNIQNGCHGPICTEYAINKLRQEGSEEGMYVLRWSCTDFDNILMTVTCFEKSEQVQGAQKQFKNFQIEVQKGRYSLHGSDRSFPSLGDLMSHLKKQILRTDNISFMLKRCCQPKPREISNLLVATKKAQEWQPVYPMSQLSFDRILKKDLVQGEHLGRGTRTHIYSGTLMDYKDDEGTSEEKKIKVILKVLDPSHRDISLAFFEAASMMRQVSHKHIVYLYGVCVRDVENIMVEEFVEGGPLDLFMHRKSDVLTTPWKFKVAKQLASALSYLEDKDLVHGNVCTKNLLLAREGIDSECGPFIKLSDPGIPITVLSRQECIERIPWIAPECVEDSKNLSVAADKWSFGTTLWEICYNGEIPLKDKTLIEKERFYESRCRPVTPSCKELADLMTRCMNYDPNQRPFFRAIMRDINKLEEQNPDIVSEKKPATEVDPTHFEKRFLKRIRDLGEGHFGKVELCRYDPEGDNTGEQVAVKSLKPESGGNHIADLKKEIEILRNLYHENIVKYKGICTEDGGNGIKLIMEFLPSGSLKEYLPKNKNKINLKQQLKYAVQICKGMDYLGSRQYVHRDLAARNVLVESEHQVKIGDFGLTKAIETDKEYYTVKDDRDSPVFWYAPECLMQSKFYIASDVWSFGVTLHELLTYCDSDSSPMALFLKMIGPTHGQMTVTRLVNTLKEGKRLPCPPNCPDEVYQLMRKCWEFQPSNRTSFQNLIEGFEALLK
Outline: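 Inhibition expressed against no-enzyme wells (100% inhibition), from time-resolved fluorescence at 665 nm after Eu-anti-phosphotyrosine antibody/EDTA detection. Kinase reaction ran 1 h at room temperature, pH 7.5 HEPES buffer, ULight-JAK1 substrate and ATP diluted to 300 nM and 150 μM before addition.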

T1 sequence (O60674 whole entry): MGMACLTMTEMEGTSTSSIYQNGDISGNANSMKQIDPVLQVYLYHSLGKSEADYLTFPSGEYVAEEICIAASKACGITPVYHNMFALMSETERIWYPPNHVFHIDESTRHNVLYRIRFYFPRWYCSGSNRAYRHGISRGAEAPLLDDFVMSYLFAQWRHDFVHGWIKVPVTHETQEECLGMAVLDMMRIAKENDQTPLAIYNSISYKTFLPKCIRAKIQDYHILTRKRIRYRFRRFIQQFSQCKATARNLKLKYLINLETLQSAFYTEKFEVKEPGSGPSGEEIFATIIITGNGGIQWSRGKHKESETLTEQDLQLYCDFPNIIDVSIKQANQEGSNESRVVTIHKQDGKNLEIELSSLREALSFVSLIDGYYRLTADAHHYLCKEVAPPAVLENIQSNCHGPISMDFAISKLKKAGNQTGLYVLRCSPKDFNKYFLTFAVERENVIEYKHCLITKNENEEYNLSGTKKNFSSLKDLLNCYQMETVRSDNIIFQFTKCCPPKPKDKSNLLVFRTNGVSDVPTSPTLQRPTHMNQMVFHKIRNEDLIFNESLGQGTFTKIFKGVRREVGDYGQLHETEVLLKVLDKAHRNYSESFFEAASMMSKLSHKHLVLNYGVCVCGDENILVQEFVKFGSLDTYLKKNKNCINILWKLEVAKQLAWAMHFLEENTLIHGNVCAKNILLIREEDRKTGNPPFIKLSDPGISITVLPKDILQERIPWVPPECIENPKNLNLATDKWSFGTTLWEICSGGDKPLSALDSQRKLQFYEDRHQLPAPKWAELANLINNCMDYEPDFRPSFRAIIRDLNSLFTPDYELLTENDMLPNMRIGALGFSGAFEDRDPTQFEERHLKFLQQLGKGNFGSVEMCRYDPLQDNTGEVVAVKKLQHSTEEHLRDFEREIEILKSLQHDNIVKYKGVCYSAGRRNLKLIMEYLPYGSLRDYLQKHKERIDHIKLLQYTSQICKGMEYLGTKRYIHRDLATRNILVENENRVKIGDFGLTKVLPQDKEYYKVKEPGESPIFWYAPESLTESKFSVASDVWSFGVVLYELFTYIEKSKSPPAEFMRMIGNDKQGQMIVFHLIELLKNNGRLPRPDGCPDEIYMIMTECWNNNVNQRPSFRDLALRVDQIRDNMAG

inhibition at 1 µM (JAK2) [%] | inhibition at 1 µM (TYK2) [%] | inhibition at 1 µM (JAK3) [%] | inhibition at 1 µM (JAK1) [%] | Structure (SMILES)
98 | 100 | 100 | 98 | CC(C)[C@H](C)n1cc(-c2cc(N3CCCC3)n(C)n2)c2[nH]nc(N)c2c1=O [Example 27, 3-amino-5-((2S)-3-methylbutan-2-yl)-7-(1-methyl-5-(pyrrolidin-1-yl)-1H-pyrazol-3-yl)-1,5-dihydro-4H-pyrazolo[4,3-c]pyridin-4-one]
90 | 98 | 95 | 78 | CCn1nc(-c2cn([C@@H](C)C(C)C)c(=O)c3c(N)n[nH]c23)cc1N1CCS(=O)(=O)CC1 [Example 28, 3-amino-7-(5-(1,1-dioxidothiomorpholin-4-yl)-1-ethyl-1H-pyrazol-3-yl)-5-((2S)-3-methylbutan-2-yl)-1,5-dihydro-4H-pyrazolo[4,3-c]pyridin-4-one]
49 | 93 | 67 | 47 | CC(C)[C@H](C)n1cc(-c2cc(N3CCS(=O)(=O)CC3)n(CC(F)(F)F)n2)c2[nH]nc(N)c2c1=O [Example 29, 3-amino-7-(5-(1,1-dioxidothiomorpholin-4-yl)-1-(2,2,2-trifluoroethyl)-1H-pyrazol-3-yl)-5-((2S)-3-methylbutan-2-yl)-1,5-dihydro-4H-pyrazolo[4,3-c]pyridin-4-one]
99 | 99 | 99 | 97 | CC(C)[C@H](C)n1cc(-c2cc(N3CCOC(C)(C)C3)n(C)n2)c2[nH]nc(N)c2c1=O [Example 30, 3-amino-7-(5-(2,2-dimethylmorpholin-4-yl)-1-methyl-1H-pyrazol-3-yl)-5-((2S)-3-methylbutan-2-yl)-1,5-dihydro-4H-pyrazolo[4,3-c]pyridin-4-one]
98 | 99 | 99 | 97 | CC1CN(c2cc(-c3cn([C@@H](C)C(C)C)c(=O)c4c(N)n[nH]c34)nn2C)CCO1 (stereo partly drawn) [Example 31, 3-amino-5-((2S)-3-methylbutan-2-yl)-7-(1-methyl-5-(2-methylmorpholin-4-yl)-1H-pyrazol-3-yl)-1,5-dihydro-4H-pyrazolo[4,3-c]pyridin-4-one]
98 | 99 | 99 | 96 | CC(C)[C@H](C)n1cc(-c2cc(N3CCN4CCCC4C3)n(C)n2)c2[nH]nc(N)c2c1=O (stereo partly drawn) [Example 32, 3-amino-7-(5-(hexahydropyrrolo[1,2-a]pyrazin-2 (H)-yl)-1-methyl-1H-pyrazol-3-yl)-5-((2S)-3-methylbutan-2-yl)-1,5-dihydro-4H-pyrazolo[4,3-c]pyridin-4-one]
98 | 99 | 99 | 96 | CC(C)[C@H](C)n1cc(-c2cc(N3CCC(C)(O)C3)n(C)n2)c2[nH]nc(N)c2c1=O (stereo partly drawn) [Example 33, 3-amino-7-(5-(3-hydroxy-3-methylpyrrolidin-1-yl)-1-methyl-1H-pyrazol-3-yl)-5-((2S)-3-methylbutan-2-yl)-1,5-dihydro-4H-pyrazolo[4,3-c]pyridin-4-one]
99 | 100 | 100 | 97 | CC(C)[C@H](C)n1cc(-c2cc(N3CCC4(CC3)COC4)n(C)n2)c2[nH]nc(N)c2c1=O [Example 34, 3-amino-5-((2S)-3-methylbutan-2-yl)-7-(1-methyl-5-(2-oxa-7-azaspiro[3.5]non-7-yl)-1H-pyrazol-3-yl)-1,5-dihydro-4H-pyrazolo[4,3-c]pyridin-4-one]
99 | 99 | 100 | 97 | CC(C)[C@H](C)n1cc(-c2cc(C3(O)CCOCC3)n(C)n2)c2[nH]nc(N)c2c1=O [Example 35, 3-amino-7-(5-(4-hydroxytetrahydro-2H-pyran-4-yl)-1-methyl-1H-pyrazol-3-yl)-5-((2S)-3-methylbutan-2-yl)-1,5-dihydro-4H-pyrazolo[4,3-c]pyridin-4-one]
80 | 91 | 85 | 55 | COCCn1nc(-c2cn([C@@H](C)C(C)C)c(=O)c3c(N)n[nH]c23)cc1C(C)(C)O [Example 36, 3-amino-7-(5-(2-hydroxypropan-2-yl)-1-(2-methoxyethyl)-1H-pyrazol-3-yl)-5-((2S)-3-methylbutan-2-yl)-1,5-dihydro-4H-pyrazolo[4,3-c]pyridin-4-one]
99 | 99 | 100 | 98 | CC(C)[C@H](C)n1cc(-c2cc(C3(O)CCC(F)(F)CC3)n(C)n2)c2[nH]nc(N)c2c1=O [Example 37, 3-amino-7-(5-(4,4-difluoro-1-hydroxycyclohexyl)-1-methyl-1H-pyrazol-3-yl)-5-((2S)-3-methylbutan-2-yl)-1,5-dihydro-4H-pyrazolo[4,3-c]pyridin-4-one]
99 | 100 | 100 | 99 | CC(C)[C@H](C)n1cc(-c2cc(C3(O)CCC3)n(C)n2)c2[nH]nc(N)c2c1=O [Example 38, 3-amino-7-(5-(1-hydroxycyclobutyl)-1-methyl-1H-pyrazol-3-yl)-5-((2S)-3-methylbutan-2-yl)-1,5-dihydro-4H-pyrazolo[4,3-c]pyridin-4-one]
99 | 100 | 100 | 99 | CC(C)[C@H](C)n1cc(-c2cc(C3=CCOCC3)n(C)n2)c2[nH]nc(N)c2c1=O [Example 39, 3-amino-7-(5-(3,6-dihydro-2H-pyran-4-yl)-1-methyl-1H-pyrazol-3-yl)-5-((2S)-3-methylbutan-2-yl)-1,5-dihydro-4H-pyrazolo[4,3-c]pyridin-4-one]
98 | 100 | 99 | 99 | CNC(=O)c1ccc(-c2cc(-c3cn([C@@H](C)C(C)C)c(=O)c4c(N)n[nH]c34)nn2C)cc1 [Example 40, 4-(3-(3-amino-5-((2S)-3-methylbutan-2-yl)-4-oxo-4,5-dihydro-1H-pyrazolo[4,3-c]pyridin-7-yl)-1-methyl-1H-pyrazol-5-yl)-N-methylbenzamide]
99 | 101 | 100 | 97 | CC(C)[C@H](C)n1cc(-c2cc(N3CCOCC3)n(C)n2)c2[nH]nc(N)c2c1=O [Example 41, 3-amino-5-((2S)-3-methylbutan-2-yl)-7-(1-methyl-5-(morpholin-4-yl)-1H-pyrazol-3-yl)-1,5-dihydro-4H-pyrazolo[4,3-c]pyridin-4-one]
